Assay: AMES test (mutagenicity)
Format: cell-based

With `CCCCOc1ccc(C(F)(F)F)cc1N` [5-Trifluormethyl-2-n-butoxy-anilin] the AMES-Test was “nicht-mutagen”.

— patent EP0300390A1, “Trifluoromethyl-alkoxy-anilin, process for their preparation and their use in the ice-colour technique” (HOECHST AKTIENGESELLSCHAFT, priority 1987, dated 1989)
